Test results as given in patent publication US20180290977A1, “KDM4 INHIBITORS” (Albert-Ludwigs-University Freiburg, priority 2017, published 2018).

How the values were obtained:
Format in all cases: cell-based, human
BCSC1 cells [1] = assay: BCSC cell proliferation / dose-response assay; settings: erlotinib, 10 μM (FIG. 7B)
Procedure: (§1) For dose-response assays, cells were detached by ACCUTASE solution dissociation and counted. […] After incubation at 37° C. for 30 min to solidify the [sequence], 1×10^3 single cells were seeded per 384-well in 40 μL medium. […] Following 96 hr of incubation under normal culture conditions, the cells were washed once with PBS and fixed with ice-cold methanol for at least 15 min at −20° C. After another washing step with PBS, cells were stained with DAPI (Sigma-Aldrich) and read-out with the ScanR microscope-based imaging platform (Olympus Deutschland GmbH, Hamburg, Del.). Total DAPI cell nuclear counts per well were determined.
(§2) For the cell proliferation assays, BCSCs tagged with a stable NLS-mCherry fluorescent signal (nuclear localization peptide) were used for this assay. Cells were detached by ACCUTASE dissociation and counted. Each well of a black 384-well plate (Greiner) was coated with 10 μL of MSC medium containing 2% [sequence]. After incubation at 37° C. for 30 min to solidify the [sequence], 1×10^3 single cells/well were seeded in 40 μL medium. […] Afterwards, the first readout with the ScanR microscope-based imaging platform (Olympus) was started, assessing mCherry-fluorescent cell nuclei in nine sectors of each well under 60% humidity and 5% CO2. This readout was repeated every 24 hr for 7 days. […]

BCSC2 cells [2] = assay: BCSC cell proliferation / dose-response assay; settings: erlotinib, 10 μM (FIG. 7C)
Procedure: as §1, §2

BCSC1 cells [3] = assay: Anchorage-independent sphere formation assay (methylcellulose); settings: erlotinib 1 μM or 10 μM (FIG. 7F)
Procedure: (§3) For the cancer stem-cell spheroid assay in methylcellulose, cells were detached by ACCUTASE solution and counted. 3×10^3 single BCSC1 and 1×10^3 single BCSC2 cells were seeded into individual wells of 96-well ultra-low attachment plates (CORNING, #3474) in serum-free MSC medium containing 1% methylcellulose (Sigma-Aldrich, #M0512).

BCSC2 cells [4] = assay: as above; settings: erlotinib 1 μM or 10 μM (FIG. 7G)
Procedure: as §3

Structure (SMILES): C#Cc1cccc(Nc2ncnc3cc(OCCOC)c(OCCOC)cc23)c1 [erlotinib]
- proliferation of BCSC1 cells (BCSC1 cells [1]): blocked
- proliferation of BCSC2 cells (BCSC2 cells [2]): blocked
- 3D-colony forming capacity (BCSC1 cells [3]): dramatically reduced
- 3D-colony forming capacity (BCSC2 cells [4]): dramatically reduced
